Assay results published in patent US6495533B1, “Drugs containing phosphoric acid derivatives as the active ingredient” (Ono Pharmaceutical Co., Ltd., priority 1999, dated 2002).

Tested on: TNFα production
Assay: Measure of TNFα production inhibitory activity (serum TNFα after LPS challenge in mice)
Type: in vivo
Conditions: female BALB/c mice, 7 weeks; test compound intravenous; LPS 100 μg/mouse intraperitoneal; blood 90 minutes after LPS; serum TNFα by ELISA; read-out: ED50 (50% effective dose) for inhibition of serum level of TNFα
Method: (i) Measure of TNFα Production Inhibitory Activity
Measure of TNFα production inhibitory activity was prepared according to procedures described previously (Kazuo Ohuchi, SEIBUTSUKAGAKUJIKKENKOZA, 12, 707 (1994) Hirokawa, Tokyo). Female mice (BALB/c, 7 weeks) were injected with test compounds via intravenous administration and with LPS (100 μg/mouse) (Bacto W. E. coli 055:B5; DIFCO Lab.) via in traperitoneal administration. At 90 minutes after LPS challenge, blood with heparin was obtained from abdominal aorta, and serum was stored at −80° C. Serum level of TNFα was determined by mouse cytokine ELISA kit (Genzyme). Inhibition and 50% effective dose (ED50) of test compounds were calculated as 100% of the difference of serum level of TNFα between in control and in LPS. ED50 of some compounds produced by the following examples were 0.01-100 mg/kg.

`CCCCCCCC(=O)N[C@@H](COP(=O)(O)O)c1ccccc1` [example 8] gave an ED50 of 2.6 mg/kg.
